Test results: PubChem BioAssay AID540258 (Broad Institute, 2011)
Activity calls are given as the source filed them.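 Rule for the calls: active = fitted curve reaching 40% activation at or below the top valid dose tested; inconclusive = flat curve at 30 to 70% activation, or poor fit; inactive = the rest.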

system: SK-MEL-5 TRPM1 promoter luciferase reporter, 24 h; assay: activation of TRPM1 promoter luciferase in melanoma cells – SK-MEL-5 cells, cherry-pick samples, dose response (AID 540258);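 note: potency for activators that raise TRPM1 promoter luciferase signal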

| Structure (SMILES) | AC40 |
| --- | --- |
| c1ccc2c(-c3csc(-c4ccncc4)n3)c[nH]c2c1 | 2930 nM |
| Nc1ccc2cc3ccccc3cc2c1 | 2880 nM |
| C=CCn1cccc(C(=O)Nc2ccc(Cl)cc2)c1=O | > 11000 nM (inactive) |
| CCN(CC)C(=O)c1cc2sc3ccccc3c2s1 | 2420 nM |
| O=C1c2ccccc2/C(=C\C#Cc2ccccn2)N1c1ccccc1 | 3930 nM |
| Cc1ccc(O)c(C2=Nc3ccccc3C2(C)C)c1 | 8510 nM |
| CC(=O)N1N=C(c2ccc(C)cc2)OC1c1ccc(Br)cc1 (configuration not stated) | 2830 nM |
| Cn1cccc1C(=O)N/N=C/c1c(Cl)cccc1Cl | 1470 nM |
| c1ccc(-c2nc(-c3nccc4ccccc34)oc2-c2ccccc2)cc1 | 3610 nM |
| Oc1ccc(N=Nc2ccccc2)cc1 | 3980 nM |
| COc1ccc(-c2cn3nc(C)c(C)nc3n2)cc1OC | 5890 nM |
| CCCC(=O)N/C(N)=N/c1nc2ccccc2o1 | 558 nM |
| CCc1ccc(NC(=O)c2cc(-c3cccs3)on2)cc1 | 12300 nM |
| Nc1ccc(N=Nc2ccccc2)c(N)n1 | 14700 nM |
| Cc1nc(SCc2ccccc2)nc2c1CCC2 | 2580 nM |
| CSc1ccccc1OCc1cc(C(=O)N[C@H]2CCCCNC2=O)no1 | 2220 nM |
| Cc1ccc(-c2cc(-c3ccc(C)cc3O)[nH]n2)cc1 | 342 nM |
| c1ccc(Cc2cc(-c3ccccc3)on2)cc1 | 2580 nM |
| O=C1C(=O)N(c2ccccc2)P(=O)(N(CCCl)CCCl)N1c1ccccc1 | 16100 nM |
| COc1ccc(/C=N/Nc2nccnc2Cl)c(OC)c1 | 2680 nM |
| Cc1ccc(Nc2nc(Cl)nc(NC(C)(C)C)n2)cc1 | 3690 nM |
| CC(C)(C)C(=O)c1sc(Nc2ccccc2)nc1N | 1680 nM |
| COc1cccc(/C(C)=N/N=C(\C)c2cccc(OC)c2)c1 | 3280 nM |

| Structure (SMILES) | AC40 |
| --- | --- |
| Nc1ccc(C#Cc2ccc3c(=O)c4ccccc4oc3c2)cc1 | 4440 nM |
| c1ccc(-c2ccc3sccc3n2)cc1 | 1520 nM |
| COc1ccc2[nH]c(-c3ccccc3)cc2c1 | 977 nM |
| COc1cc(/C=C/c2nc3ccccc3c(=O)[nH]2)ccc1OC(F)F | 980 nM |
| CC(C)(C)c1csc(N/N=C/c2ccc(O)cc2)n1 | 17800 nM |
| COc1ccc2c(c1)CC/C2=N\OC(=O)c1ccccc1C | 1270 nM |
| COC(=O)c1ccc(Nc2ncnc3sccc23)cc1 | 7470 nM |
| Brc1csc(/C=N/Nc2nc3ccccc3s2)c1 | 667 nM |
| COC(=O)C1CCc2c(ccc3c2CCCC3)C1=O (configuration not stated) | 2030 nM |
| CCNc1nc(N)nc(Oc2ccc(C(=O)OC)cc2)n1 | 3640 nM |
| Cc1ccc(-n2nc3ccc(NC(=O)C(C)C)cc3n2)cc1 | 555 nM |
| Cc1ccc(C(=O)Nc2ncccc2S(=O)(=O)c2ccccc2)cc1 | 2940 nM |
| c1ccc(CCn2nnc3ccccc32)cc1 | 867 nM |
| ClCCn1cnc2c(SCc3ccccc3)ncnc21 | 3640 nM |
| c1ccc(CSCc2nc3ccccc3[nH]2)cc1 | 6650 nM |
| Clc1ccc(OCc2noc(-c3ccsc3)n2)c(Cl)c1 | 1450 nM |
| COc1ccc2ccccc2c1/C=N/Nc1cccc(C(=O)O)c1 | 13100 nM |
| Cc1ccc(CNc2ccc3c(c2)ncn3C(C)C)cc1 | 2630 nM |
| O=C(Nc1ccccn1)c1ccccc1 | 14800 nM |
| COc1ccc(Br)c(C(=O)Nc2nc3ccccc3[nH]2)c1 | 4940 nM |
| COc1ccc(C2=NN(c3ccccc3)C(c3ccc(OC)c(OC)c3)C2)cc1 (configuration not stated) | 25600 nM |
| O=C(c1nnc(-c2ccc(Cl)cc2)o1)C1CCCC1 | 10300 nM |
| CCCc1nc2ccc(NC(C)=O)cc2c(=O)n1Cc1ccc(Cl)cc1 | 2920 nM |

| Structure (SMILES) | AC40 |
| --- | --- |
| O=C(CC(Nc1ccccc1)C(=O)O)c1ccccc1 (configuration not stated) | 749 nM |
| Clc1ccc(COn2nnc3ccccc32)c(Cl)c1 | 941 nM |
| CCCC(=O)c1ccc(N2CCCCCC2)c(F)c1 | 3360 nM |
| CCCc1ccc(C(=O)NNc2ccccc2F)cc1 | 8640 nM |
| CCN1CCN(c2ccc(NC(=O)c3cccc(F)c3)cc2Cl)CC1 | 3080 nM |
| CC1CCCC(C)N1C(=O)c1cc(-c2ccc3c(c2)OCO3)on1 (configuration not stated) | 1250 nM |
| O=C(Nc1ccc(-c2nc3cccnc3s2)cc1)c1ccc(Cl)nc1 | 2110 nM |
| CCCCNC(=O)c1cc2ccccc2s1 | 31000 nM |
| O=C(c1noc2c1CCCC2)N1CCc2ccccc2C1 | 5970 nM |
| O=c1oc2cc(Cl)ccc2n1CSc1nc2ccccc2s1 | 4250 nM |
| CC(C)c1ccc(N=C2NN=C(c3cccs3)CS2)cc1 | 547 nM |
| Cc1cc(NC(=O)c2ccc(Cl)cc2)no1 | 2630 nM |
| O=C(Nc1ccccc1)N1CCC(c2ccccc2)C1 (configuration not stated) | 1800 nM |
| Cc1nn(CC(C)C)c(Cl)c1C(=O)NC1CCC(C)CC1 (configuration not stated) | 2630 nM |
| CCN=c1scc(-c2ccc(F)cc2)n1/N=C/c1ccccn1 | 798 nM |
| CC(=O)c1sc(NC(=O)c2ccccc2F)nc1-c1ccccc1 | 3020 nM |
| CC(C)c1ccc2nc(N)sc2c1 | > 35000 nM (inactive) |
| O=C(O)c1ccccc1N/N=C/c1cc(Br)cc(Br)c1O | 4580 nM |
| COC(=O)c1cc(-c2ccc(OC)cc2)n[nH]1 | 6210 nM |
| O=C(c1cccs1)N1CCn2c1nc1ccccc12 | 4680 nM |
| COc1cc(SC)ccc1C(=O)NCC1CCCCC1 | 14400 nM |
